As usually defined, the inhibition is the percentage by which the read-out fell short of the control. A higher inhibition goes with a response far below the control.

Inhibition data for 14 molecules are collected here from EP4667466A1, “PROTAC DEGRADERS OF MLLT1 AND/OR MLLT3” (priority 2024, dated 2025).

The assay has as its target T1, MLLT1 (Homo sapiens, UniProt Q03111).
T1 construct: endogenous in cells; host or cells: MV4-11 (ATCC CRL-9591)
T1 sequence (Q03111 1-559): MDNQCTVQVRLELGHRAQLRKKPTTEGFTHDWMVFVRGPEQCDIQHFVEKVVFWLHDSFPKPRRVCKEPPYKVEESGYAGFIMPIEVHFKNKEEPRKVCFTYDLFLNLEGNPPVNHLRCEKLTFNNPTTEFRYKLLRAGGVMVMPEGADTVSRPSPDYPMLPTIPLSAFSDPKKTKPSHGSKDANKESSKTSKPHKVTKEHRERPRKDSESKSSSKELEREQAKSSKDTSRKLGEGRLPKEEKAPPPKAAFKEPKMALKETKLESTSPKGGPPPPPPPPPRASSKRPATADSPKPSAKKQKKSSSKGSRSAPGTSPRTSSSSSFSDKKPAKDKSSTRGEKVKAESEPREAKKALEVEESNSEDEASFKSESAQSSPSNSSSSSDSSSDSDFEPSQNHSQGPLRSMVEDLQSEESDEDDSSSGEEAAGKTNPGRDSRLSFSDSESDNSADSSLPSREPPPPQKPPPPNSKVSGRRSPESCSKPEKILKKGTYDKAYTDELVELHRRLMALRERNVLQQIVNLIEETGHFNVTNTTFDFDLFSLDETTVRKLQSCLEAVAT
Nature of the assay: MLLT1 degradation assay (JESS automated chemiluminescent detection) in MV4-11 cells. The assay is classed as cell-based. The conditions noted are these: 24h, with respect to DMSO control. As to the method: MLLT1 degradation efficacy of compounds was tested in an automated chemiluminescent detection system (JESS, Cat# 004-650). MV4-11 (#CRL-9591, ATCC) cells were seeded at a density of 1.2 million cells/well in a non-treated 6-well cell culture plate in 2.4 mL of complete medium (IMDM + 10% FBS + 1X Penicillin-Streptomycin). 10 mM DMSO stocks were prepared, and cells were treated with three concentrations of test compounds viz. 1000, 100 and 10 nM at a final DMSO concentration of 0.1% and incubated for 24h at 37°C, 5% CO2. Post incubation, cells were centrifuged, washed with HBSS and lysed in 70 uL of RIPA buffer supplemented with Protease inhibitors (sc-24948; Santa Cruz). Subsequently, protein estimation was done using BCA protein assay kit (23225; Pierce). 4 ug protein lysate (4 uL of 1ug/uL lysate) was loaded into each well of the JESS cartridge (SM-WO01; Bio-techne) and the JESS run was performed using 1:900 dilution of anti-human MLLT1 antibody (14893; Cell signaling technology) and 1:1200 dilution of anti-human GAPDH antibody (2118; Cell signaling technology) with anti-rabbit secondary detection module (DM-001; Bio-Techne). Post run, data were analysed using "Compass for SW" software for chemiluminescent detection. The peak area for each band was used for the calculation of MLLT1 degradation with respect to DMSO control. Data is shown as "MLLT1 % degradation". Category A: A ≥ 75% degradation Category B: 50% ≤ B < 75% degradation Category C: 25% ≤ C < 50% degradation Category D: D < 25% degradation Table 1

Some results are limits rather than exact numbers.

In the case of `CN1CCC[C@@H]1c1cc2cnc(NC(=O)c3ccc4cnn(CCCCCCCC#Cc5cccc6c5CN(C5CCC(=O)NC5=O)C6=O)c4c3)cc2[nH]1` (stereo partly drawn) [Example 55, 1-(9-(2-(2,6-dioxopiperidin-3-yl)-1-oxoisoindolin-4-yl)non-8-yn-1-yl)-N-(2-((R)-1-methylpyrrolidin-2-yl)-1H-pyrrol[3,2-c]pyridin-6-yl)-1H-indazole-6-carboxamide], the inhibition at 0.01 µM lay in the range of 50 to 75%, the inhibition at 0.1 µM was ≥ 75% and the inhibition at 1 µM is ≥ 75%.
As to `Cc1nn(CCCCCCCC#Cc2cc3c(cc2F)c(N2CCC(=O)NC2=O)nn3C)c2cc(C(=O)Nc3cc4[nH]c([C@H]5CCCN5C)cc4cn3)ccc12` [Example 65, (R)-1-(9-(3-(2,4-dioxotetrahydropyrimidin-1(2H)-yl)-5-fluoro-1-methyl-1H-indazol-6-yl)non-8-yn-1-yl)-3-methyl-N-(2-(1-methylpyrrolidin-2-yl)-1H-pyrrolo[3,2-c]pyridin-6-yl)-1H-indazole-6-carboxamide], the inhibition at 0.01 µM was in the range of 25 to 50%, the inhibition at 0.1 µM fell in the range of 50 to 75% and the inhibition at 1 µM was ≥ 75%.
The corresponding values for `Cc1nn(CCCCCC#Cc2cccc3c2C(=O)N(C2CCC(=O)NC2=O)C3=O)c2cc(C(=O)Nc3cc4[nH]c([C@H]5CCCN5C)cc4cn3)ccc12` (stereo partly drawn) [Example 33, 1-(7-(2-(2,6-dioxopiperidin-3-yl)-1,3-dioxoisoindolin-4-yl)hept-6-yn-1-yl)-3-methyl-N-(2-((R)-1-methylpyrrolidin-2-yl)-1H-pyrrolo[3,2-c]pyridin-6-yl)-1H-indazole-6-carboxamide] are 50 to 75%, 50 to 75% and ≥ 75%.
In the same order, the values of `Cc1nn(CCCCCCC2CCN(c3cccc(C(=O)N[C@H]4CCC(=O)NC4=O)n3)CC2)c2cc(C(=O)Nc3cc4[nH]c([C@H]5CCCN5C)cc4cn3)ccc12` [Example 73, 1-(6-(1-(6-(((S)-2,6-dioxopiperidin-3-yl)carbamoyl)pyridin-2-yl)piperidin-4-yl)hexyl)-3-methyl-N-(2-((R)-1-methylpyrrolidin-2-yl)-1H-pyrrolo[3,2-c]pyridin-6-yl)-1H-indazole-6-carboxamide] are 50 to 75%, ≥ 75% and ≥ 75%.
In the same order, the values of `Cc1nn(C2CCN(CC3CCN(c4cc5c(cc4F)C(=O)N(C4CCC(=O)NC4=O)C5=O)CC3)CC2)c2cc(C(=O)Nc3cc4[nH]c([C@H]5CCCN5C)cc4cn3)ccc12` (stereo partly drawn) [Example 69, 1-(1-((1-(2-(2,6-dioxopiperidin-3-yl)-6-fluoro-1,3-dioxoisoindolin-5-yl)piperidin-4-yl)methyl)piperidin-4-yl)-3-methyl-N-(2-((R)-1-methylpyrrolidin-2-yl)-1H-pyrrolo[3,2-c]pyridin-6-yl)-1H-indazole-6-carboxamide] are ≥ 75%, ≥ 75% and ≥ 75%.
Consider `Cc1nn(C2CCN(CC3CCN(c4ccc5c(c4)C(=O)N(C4CCC(=O)NC4=O)C5=O)CC3)CC2)c2cc(C(=O)Nc3cc4[nH]c([C@H]5CCCN5C)cc4cn3)ccc12` (stereo partly drawn) [Example 70, 1-(1-((1-(2-(2,6-dioxopiperidin-3-yl)-1,3-dioxoisoindolin-5-yl)piperidin-4-yl)methyl)piperidin-4-yl)-3-methyl-N-(2-((R)-1-methylpyrrolidin-2-yl)-1H-pyrrolo[3,2-c]pyridin-6-yl)-1H-indazole-6-carboxamide], for which the inhibition at 0.01 µM is ≥ 75%, the inhibition at 0.1 µM was ≥ 75% and the inhibition at 1 µM was ≥ 75%.
As to `Cc1nn(CCCCCN2CCN(c3cc4c(cc3F)C(=O)N(C3CCC(=O)NC3=O)C4=O)CC2)c2cc(C(=O)Nc3cc4[nH]c([C@H]5CCCN5C)cc4cn3)ccc12` (stereo partly drawn) [Example 23, 1-(5-(4-(2-(2,6-dioxopiperidin-3-yl)-6-fluoro-1,3-dioxoisoindolin-5-yl)piperazin-1-yl)pentyl)-3-methyl-N-(2-((R)-1-methylpyrrolidin-2-yl)-1H-pyrrolo[3,2-c]pyridin-6-yl)-1H-indazole-6-carboxamide], the inhibition at 0.01 µM was ≥ 75%, the inhibition at 0.1 µM is ≥ 75% and the inhibition at 1 µM was ≥ 75%.
Regarding `Cc1nn(CCCCCCCC=C(Cl)c2ccc3c(c2)n(C)c(=O)n3C2CCC(=O)NC2=O)c2cc(C(=O)Nc3cc4[nH]c([C@H]5CCCN5C)cc4cn3)ccc12` (mixture of isomers) [Example 40], the inhibition at 0.01 µM is ≥ 75%, the inhibition at 0.1 µM was ≥ 75% and the inhibition at 1 µM was ≥ 75%.
Regarding `Cc1nn(CCCCCN2CCN(c3cccc4c3C(=O)N(C3CCC(=O)NC3=O)C4=O)CC2)c2cc(C(=O)Nc3cc4[nH]c([C@H]5CCCN5C)cc4cn3)ccc12` (stereo partly drawn) [Example 47, 1-(5-(4-(2-(2,6-dioxopiperidin-3-yl)-1,3-dioxoisoindolin-4-yl)piperazin-1-yl)pentyl)-3-methyl-N-(2-((R)-1-methylpyrrolidin-2-yl)-1H-pyrrolo[3,2-c]pyridin-6-yl)-1H-indazole-6-carboxamide], the inhibition at 0.01 µM is < 25%, the inhibition at 0.1 µM is < 25% and the inhibition at 1 µM fell in the range of 50 to 75%.
As to `Cc1nn(CCCCCC#Cc2cccc(C(=O)NC3CCC(=O)NC3=O)c2F)c2cc(C(=O)Nc3cc4[nH]c([C@H]5CCCN5C)cc4cn3)ccc12` (stereo partly drawn) [Example 34, 1-(7-(3-((2,6-dioxopiperidin-3-yl)carbamoyl)-2-fluorophenyl)hept-6-yn-1-yl)-3-methyl-N-(2-((R)-1-methylpyrrolidin-2-yl)-1H-pyrrolo[3,2-c]pyridin-6-yl)-1H-indazole-6-carboxamide], the inhibition at 0.01 µM is < 25%, the inhibition at 0.1 µM is 50 to 75% and the inhibition at 1 µM is ≥ 75%.
In the same order, the values of `Cc1c([C@H]2CCCN2C)[nH]c2cc(NC(=O)c3ccc4c(C)nn(CCCCCCCC#Cc5cccc6c5CN(C5CCC(=O)NC5=O)C6=O)c4c3)ncc12` (stereo partly drawn) [Example 57, 1-(9-(2-(2,6-dioxopiperidin-3-yl)-1-oxoisoindolin-4-yl)non-8-yn-1-yl)-3-methyl-N-(3-methyl-2-((R)-1-methylpyrrolidin-2-yl)-1H-pyrrolo[3,2-c]pyridin-6-yl)-1H-indazole-6-carboxamide] are ≥ 75%, ≥ 75% and ≥ 75%.
The corresponding values for `Cc1nn(CCCCCCCC#Cc2cccc(C3CCC(=O)NC3=O)c2F)c2cc(C(=O)Nc3cc4[nH]c([C@H]5CCCN5C)cc4cn3)ccc12` (stereo partly drawn) [Example 61, 1-(9-(3-(2,6-dioxopiperidin-3-yl)-2-fluorophenyl)non-8-yn-1-yl)-3-methyl-N-(2-((R)-1-methylpyrrolidin-2-yl)-1H-pyrrolo [3,2-c]pyridin-6-yl)-1H-indazole-6-carboxamide] are 25 to 50%, ≥ 75% and ≥ 75%.
In the same order, the values of `Cc1nn(C2CCC(CCCC#Cc3cccc4c3CN(C3CCC(=O)NC3=O)C4=O)CC2)c2cc(C(=O)Nc3cc4[nH]c([C@H]5CCCN5C)cc4cn3)ccc12` (stereo partly drawn) [Example 74, 1-(4-(5-(2-(2,6-dioxopiperidin-3-yl)-1-oxoisoindolin-4-yl)pent-4-yn-1-yl)cyclohexyl)-3-methyl-N-(2-((R)-1-methylpyrrolidin-2-yl)-1H-pyrrolo[3,2-c]pyridin-6-yl)-1H-indazole-6-carboxamide] are 50 to 75%, 50 to 75% and ≥ 75%.
With `Cc1nn(CCOCCN2CCN(c3cc4c(cc3F)C(=O)N(C3CCC(=O)NC3=O)C4=O)CC2)c2cc(C(=O)Nc3cc4[nH]c([C@H]5CCCN5C)cc4cn3)ccc12` (stereo partly drawn) [Example 24, 1-(2-(2-(4-(2-(2,6-dioxopiperidin-3-yl)-6-fluoro-1,3-dioxoisoindolin-5-yl)piperazin-1-yl)ethoxy)ethyl)-3-methyl-N-(2-((R)-1-methylpyrrolidin-2-yl)-1H-pyrrolo[3,2-c]pyridin-6-yl)-1H-indazole-6-carboxamide], the inhibition at 0.1 µM lay in the range of 50 to 75% and the inhibition at 1 µM is ≥ 75%.
